This test deals with T1, full-length beta-Catenin (Uniprot ID P35222) (Homo sapiens, UniProt P35222).
T1 construct: 10 nM full-length beta-Catenin (Uniprot ID P35222)
T1 sequence (P35222 1-781): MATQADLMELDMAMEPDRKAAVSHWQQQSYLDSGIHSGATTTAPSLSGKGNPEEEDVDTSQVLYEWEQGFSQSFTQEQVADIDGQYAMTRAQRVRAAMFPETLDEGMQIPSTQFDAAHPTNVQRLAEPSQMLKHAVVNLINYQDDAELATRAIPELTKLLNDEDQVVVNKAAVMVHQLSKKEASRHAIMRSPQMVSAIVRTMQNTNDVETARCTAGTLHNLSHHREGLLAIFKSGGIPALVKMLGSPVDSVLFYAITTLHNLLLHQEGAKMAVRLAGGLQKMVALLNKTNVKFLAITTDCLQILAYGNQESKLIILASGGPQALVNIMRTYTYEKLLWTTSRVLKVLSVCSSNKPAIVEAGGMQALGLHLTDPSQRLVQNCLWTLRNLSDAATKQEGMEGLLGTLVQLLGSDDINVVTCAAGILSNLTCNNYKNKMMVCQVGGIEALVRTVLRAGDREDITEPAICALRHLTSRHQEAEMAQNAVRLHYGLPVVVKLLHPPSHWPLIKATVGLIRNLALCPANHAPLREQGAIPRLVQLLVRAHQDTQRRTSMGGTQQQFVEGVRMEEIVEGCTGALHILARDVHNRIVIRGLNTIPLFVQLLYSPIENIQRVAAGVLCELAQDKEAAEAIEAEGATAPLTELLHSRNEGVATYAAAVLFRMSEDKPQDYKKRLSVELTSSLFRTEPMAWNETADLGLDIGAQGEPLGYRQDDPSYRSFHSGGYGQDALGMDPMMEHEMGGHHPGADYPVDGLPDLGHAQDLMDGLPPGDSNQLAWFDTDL
Nature of the test: Fluorescence polarization IC50 (beta-catenin / 5FAM-TCF4 10-53 competition). The format is binding. As to conditions: fluorescence polarization; read-out: beta-Catenin FP IC50. Background: In fluorescence polarisation assays a small probe gives low polarisation when free and higher when bound to something large.
Usually IC50 stands for the concentration that inhibits the measured activity by half. `CC(C)C[C@H](NC(=O)[C@]12CCN(C1)C(=O)OCCCCCCCCC1(CCCCCCCCC(=O)N3CCC[C@@]3(C)C(=O)N[C@@H](CC(=O)O)C(=O)N1)C(=O)N[C@@H](C)C(=O)N[C@@H](CC(=O)O)C(=O)N[C@@H](CC(=O)O)C(=O)N[C@@H](C)C(=O)N[C@@H](C)C(=O)N[C@@H](Cc1ccccc1)C(=O)N2)C(=O)N[C@@H](Cc1ccsc1)C(=O)N[C@@H](Cc1csc2ccccc12)C(=O)N[C@@H](CCC(N)=O)C(N)=O` (stereo partly drawn) [I-2600, 5hexenyl-MePro-Asp-B5-Ala-Asp-Asp-Ala-Ala-Phe-PyrS2-Leu-3Thi-BztA-Gln-NH2]: the IC50 is 923 nM.

`CC(C)C[C@H](NC(=O)[C@]12CCN(C1)C(=O)OCCCCCCCCC1(CCCCCCCC(=O)N3CCC[C@@]3(C)C(=O)N[C@@H](CC(=O)O)C(=O)N1)C(=O)N[C@@H](C)C(=O)N[C@@H](CC(=O)O)C(=O)N[C@@H](CC(=O)O)C(=O)N[C@@H](C)C(=O)N[C@@H](C)C(=O)N[C@@H](Cc1ccccc1)C(=O)N2)C(=O)N[C@@H](Cc1ccsc1)C(=O)N[C@@H](Cc1csc2ccccc12)C(=O)N[C@@H](CCC(N)=O)C(N)=O` (stereo partly drawn) [I-2601, 4pentenyl-MePro-Asp-B5-Ala-Asp-Asp-Ala-Ala-Phe-PyrS2-Leu-3Thi-BztA-Gln-NH2]: the IC50 turned out to be 592 nM.

Take `CC(C)C[C@H](NC(=O)[C@]12CCN(C1)C(=O)OCCCC=CCCCC1(CCCC=CCCCC(=O)N3CCC[C@@]3(C)C(=O)N[C@@H](CC(=O)O)C(=O)N1)C(=O)N[C@@H](C)C(=O)N[C@@H](CC(=O)O)C(=O)N[C@@H](Cc1cccc(C(=O)O)c1)C(=O)N[C@@H](C)C(=O)N[C@@H](C)C(=O)N[C@@H](Cc1ccccc1)C(=O)N2)C(=O)N[C@@H](Cc1ccsc1)C(=O)N[C@@H](Cc1csc2ccccc12)C(=O)N[C@@H](CCC(N)=O)C(N)=O` (stereo partly drawn) [I-2602, 5hexenyl-MePro-Asp-B5-Ala-Asp-3COOHF-Ala-Ala-Phe-PyrS2-Leu-3Thi-BztA-Gln-NH2]: the 50% inhibitory concentration (IC50) was found to be 8220 nM.

For the compound `CC(C)C[C@H](NC(=O)[C@]12CCN(C1)C(=O)OCCCC=CCCCC1(CCCC=CCCC(=O)N3CCC[C@@]3(C)C(=O)N[C@@H](CC(=O)O)C(=O)N1)C(=O)N[C@@H](C)C(=O)N[C@@H](CC(=O)O)C(=O)N[C@@H](Cc1cccc(C(=O)O)c1)C(=O)N[C@@H](C)C(=O)N[C@@H](C)C(=O)N[C@@H](Cc1ccccc1)C(=O)N2)C(=O)N[C@@H](Cc1ccsc1)C(=O)N[C@@H](Cc1csc2ccccc12)C(=O)N[C@@H](CCC(N)=O)C(N)=O` (stereo partly drawn) [I-2603, 4pentenyl-MePro-Asp-B5-Ala-Asp-3COOHF-Ala-Ala-Phe-PyrS2-Leu-3Thi-BztA-Gln-NH2], the IC50 stood at 767 nM.

With `CC(C)C[C@H](NC(=O)[C@]12CCN(C1)C(=O)OCCCCCCCCC1(CCCCCCCCC(=O)N3CCC[C@@]3(C)C(=O)N[C@@H](CC(=O)O)C(=O)N1)C(=O)N[C@@H](C)C(=O)N[C@@H](CC(=O)O)C(=O)N[C@@H](Cc1cccc(C(=O)O)c1)C(=O)N[C@@H](C)C(=O)N[C@@H](C)C(=O)N[C@@H](Cc1ccccc1)C(=O)N2)C(=O)N[C@@H](Cc1ccsc1)C(=O)N[C@@H](Cc1csc2ccccc12)C(=O)N[C@@H](CCC(N)=O)C(N)=O` (stereo partly drawn) [I-2604, 5hexenyl-MePro-Asp-B5-Ala-Asp-3COOHF-Ala-Ala-Phe-PyrS2-Leu-3Thi-BztA-Gln-NH2], the IC50 was found to be 1120 nM.

For the compound `CC(C)C[C@H](NC(=O)[C@]12CCN(C1)C(=O)OCCCCCCCCC1(CCCCCCCC(=O)N3CCC[C@@]3(C)C(=O)N[C@@H](CC(=O)O)C(=O)N1)C(=O)N[C@@H](C)C(=O)N[C@@H](CC(=O)O)C(=O)N[C@@H](Cc1cccc(C(=O)O)c1)C(=O)N[C@@H](C)C(=O)N[C@@H](C)C(=O)N[C@@H](Cc1ccccc1)C(=O)N2)C(=O)N[C@@H](Cc1ccsc1)C(=O)N[C@@H](Cc1csc2ccccc12)C(=O)N[C@@H](CCC(N)=O)C(N)=O` (stereo partly drawn) [I-2605, 4pentenyl-MePro-Asp-B5-Ala-Asp-3COOHF-Ala-Ala-Phe-PyrS2-Leu-3Thi-BztA-Gln-NH2], the IC50 worked out at 608 nM.

Consider `CC(C)C[C@H](NC(=O)[C@]12CCN(C1)C(=O)OCCCCCCCCC1(CCCCCCC(=O)N3CCC[C@@]3(C)C(=O)N[C@@H](CC(=O)O)C(=O)N1)C(=O)N[C@@H](C)C(=O)N[C@@H](CC(=O)O)C(=O)N[C@@H](CC(=O)O)C(=O)N[C@@H](C)C(=O)N[C@@H](C)C(=O)N[C@@H](Cc1ccccc1)C(=O)N2)C(=O)N[C@@H](Cc1ccsc1)C(=O)N[C@@H](Cc1csc2ccccc12)C(=O)N[C@@H](CCC(N)=O)C(N)=O` (stereo partly drawn) [I-2608, 3butenyl-MePro-Asp-B5-Ala-Asp-Asp-Ala-Ala-Phe-PyrS2-Leu-3Thi-BztA-Gln-NH2], for which the concentration for half-maximal inhibition (IC50) was 251 nM.

For `CC(=O)N1CCC[C@]12CC=CCCCC1(CCCC=CCCCOC(=O)N3CC(C(=O)N[C@@H](Cc4ccccc4C(F)(F)F)C(=O)N[C@@H](Cc4csc5ccccc45)C(=O)N[C@@H](CCC(N)=O)C(N)=O)(C3)NC(=O)[C@H](CC(C)C)NC(=O)[C@H](Cc3ccccc3)NC(=O)[C@H](C)NC(=O)[C@H](C)NC(=O)[C@H](Cc3cccc(C(=O)O)c3)NC(=O)[C@H](CC(=O)O)NC1=O)NC(=O)[C@H](CC(C)(C)C)NC(=O)[C@H](CC(=O)O)NC2=O` (stereo partly drawn) [I-2610, Ac-PL3-Asp-Npg-B5-Asp-3COOHF-Ala-Ala-Phe-Leu-Az2-2F3MeF-BztA-Gln-NH2], the concentration for half-maximal inhibition (IC50) was determined as 215 nM.

Take `CC(=O)N1CCC[C@]12CC=CCCCC1(CCCC=CCCCCOC(=O)N3CC(C(=O)N[C@@H](Cc4ccccc4C(F)(F)F)C(=O)N[C@@H](Cc4csc5ccccc45)C(=O)N[C@@H](CCC(N)=O)C(N)=O)(C3)NC(=O)[C@H](CC(C)C)NC(=O)[C@H](Cc3ccccc3)NC(=O)[C@H](C)NC(=O)[C@H](C)NC(=O)[C@H](Cc3cccc(C(=O)O)c3)NC(=O)[C@H](CC(=O)O)NC1=O)NC(=O)[C@H](CC(C)(C)C)NC(=O)[C@H](CC(=O)O)NC2=O` (stereo partly drawn) [I-2611, Ac-PL3-Asp-Npg-B5-Asp-3COOHF-Ala-Ala-Phe-Leu-Az3-2F3MeF-BztA-Gln-NH2]: the IC50 was determined as 188 nM.

On to `CC(=O)N1CCC[C@]12CC=CCCCC1(CCCC=CCCCCOC(=O)N3CC(C(=O)N[C@@H](Cc4ccsc4)C(=O)N[C@@H](Cc4csc5ccccc45)C(=O)N[C@@H](CCC(N)=O)C(N)=O)(C3)NC(=O)[C@H](CC(C)C)NC(=O)[C@H](Cc3ccccc3)NC(=O)[C@H](C)NC(=O)[C@H](C)NC(=O)[C@H](Cc3cccc(C(=O)O)c3)NC(=O)[C@H](CC(=O)O)NC1=O)NC(=O)[C@H](CC(C)(C)C)NC(=O)[C@H](CC(=O)O)NC2=O` (stereo partly drawn) [I-2612, Ac-PL3-Asp-Npg-B5-Asp-3COOHF-Ala-Ala-Phe-Leu-Az3-3Thi-BztA-Gln-NH2], for which the IC50 was 85 nM.

As to `CC(=O)N1CCC[C@]12CC=CCCCC1(CCCC=CCCCOC(=O)N3CC(C(=O)N[C@@H](Cc4ccccc4C(F)(F)F)C(=O)N[C@@H](Cc4csc5ccccc45)C(=O)N[C@@H](CCC(N)=O)C(N)=O)(C3)NC(=O)[C@H](CC(C)C)NC(=O)[C@H](Cc3ccccc3)NC(=O)[C@H](C)NC(=O)C(C)(C)NC(=O)[C@H](Cc3cccc(C(=O)O)c3)NC(=O)[C@H](CC(=O)O)NC1=O)NC(=O)[C@H](CC(C)(C)C)NC(=O)[C@H](CC(=O)O)NC2=O` (stereo partly drawn) [I-2613, Ac-PL3-Asp-Npg-B5-Asp-3COOHF-Aib-Ala-Phe-Leu-Az2-2F3MeF-BztA-Gln-NH2], the IC50 worked out at 183 nM.

Regarding `CC(=O)N1CCC[C@]12CC=CCCCC1(CCCC=CCCCOC(=O)N3CC(C(=O)N[C@@H](Cc4ccccc4C(F)(F)F)C(=O)N[C@@H](Cc4csc5ccccc45)C(=O)N[C@@H](CCC(N)=O)C(N)=O)(C3)NC(=O)[C@H](CC(C)C)NC(=O)[C@H](Cc3ccccc3)NC(=O)[C@H](C)NC(=O)C(C)(C)NC(=O)[C@H](Cc3cccc(C(=O)O)c3)NC(=O)[C@H](CC(=O)O)NC1=O)NC(=O)[C@H](CC(C)(C)C)NC(=O)[C@H](CC(=O)O)NC2=O` (stereo partly drawn) [I-2614, Ac-PL3-Asp-Npg-B5-Asp-3COOHF-Aib-Ala-Phe-Leu-Az2-2F3MeF-BztA-Gln-NH2], the IC50 came to 97 nM.

Consider `CC(=O)N1CCC[C@]12CC=CCCCC1(CCCC=CCCCCOC(=O)N3CC(C(=O)N[C@@H](Cc4ccccc4C(F)(F)F)C(=O)N[C@@H](Cc4csc5ccccc45)C(=O)N[C@@H](CCC(N)=O)C(N)=O)(C3)NC(=O)[C@H](CC(C)C)NC(=O)[C@H](Cc3ccccc3)NC(=O)[C@H](C)NC(=O)C(C)(C)NC(=O)[C@H](Cc3cccc(C(=O)O)c3)NC(=O)[C@H](CC(=O)O)NC1=O)NC(=O)[C@H](CC(C)(C)C)NC(=O)[C@H](CC(=O)O)NC2=O` (stereo partly drawn) [I-2615, Ac-PL3-Asp-Npg-B5-Asp-3COOHF-Aib-Ala-Phe-Leu-Az3-2F3MeF-BztA-Gln-NH2], for which the IC50 amounted to 115 nM.

`CC(=O)N1CCC[C@]12CC=CCCCC1(CCCC=CCCCCOC(=O)N3CC(C(=O)N[C@@H](Cc4ccccc4C(F)(F)F)C(=O)N[C@@H](Cc4csc5ccccc45)C(=O)N[C@@H](CCC(N)=O)C(N)=O)(C3)NC(=O)[C@H](CC(C)C)NC(=O)[C@H](Cc3ccccc3)NC(=O)[C@H](C)NC(=O)C(C)(C)NC(=O)[C@H](Cc3cccc(C(=O)O)c3)NC(=O)[C@H](CC(=O)O)NC1=O)NC(=O)[C@H](CC(C)(C)C)NC(=O)[C@H](CC(=O)O)NC2=O` (stereo partly drawn) [I-2616, Ac-PL3-Asp-Npg-B5-Asp-3COOHF-Aib-Ala-Phe-Leu-Az3-2F3MeF-BztA-Gln-NH2]: the IC50 was found to be 175 nM.

Values taken from patent US20240116985A1, “STAPLED PEPTIDES AND METHODS THEREOF” (priority 2020, published 2024).
